Source: patent US7674938B2, “Amino alcohol derivatives, pharmaceutical compositions containing the same, and use thereof” (Kissei Pharmaceutical Co., Ltd., priority 2003, dated 2010)
Read-outs that look alike come from different tables or passages of the source.

Legend:
[1] = target: T1, β1-adrenoceptor (Rattus norvegicus, UniProt P18090); assay: β1-adrenoceptor stimulation in isolated tissue: heart rate increment of rat atrium (Magnus method); design: species or system SD rat; details: read-out: β1 receptor EC50
T1 construct: The atrium of male SD rat (body weight 250-400 g) was isolated; from tissue; host or cells: SD rat atrium
T1 sequence (P18090 whole entry): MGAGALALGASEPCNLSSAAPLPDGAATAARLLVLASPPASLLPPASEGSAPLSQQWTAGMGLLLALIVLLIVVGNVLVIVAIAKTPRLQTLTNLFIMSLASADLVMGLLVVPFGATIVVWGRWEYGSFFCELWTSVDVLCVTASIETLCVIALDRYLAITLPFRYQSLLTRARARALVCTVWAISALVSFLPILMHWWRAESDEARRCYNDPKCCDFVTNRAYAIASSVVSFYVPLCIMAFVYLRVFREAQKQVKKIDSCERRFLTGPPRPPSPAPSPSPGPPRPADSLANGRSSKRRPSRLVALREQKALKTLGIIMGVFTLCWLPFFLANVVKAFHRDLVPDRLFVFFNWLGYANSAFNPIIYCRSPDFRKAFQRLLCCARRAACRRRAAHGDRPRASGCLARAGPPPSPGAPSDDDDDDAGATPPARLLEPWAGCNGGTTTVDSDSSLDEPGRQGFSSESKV
Method: 2) Measurement of β1-adrenoceptor Stimulation
The atrium of male SD rat (body weight 250-400 g) was isolated and the experiment was conducted according to a Magnus method. The preparation was suspended in a Krebs-Henseleit solution maintained at 37° C. and gassed with a mixed gas of 95% O2 and 5% CO2 and stretched at a tension of 0.5 g. The myocardial contractility was outputted through an isometric force transducer and recorded on an oscillograph through a tachometer. The test compound was added cumulatively into a Magunus bath.

[2] = target: T2, human β1-adrenoceptor (Homo sapiens, UniProt P08588); assay: Agonistic activities on human β1-adrenoceptor (cAMP in transfected CHO cells); assay type: cell-based; details: for β1 receptor I.A.: intrinsic activity: maximum reaction relative to isoproterenol maximum (100%)
T2 construct: Both ends of a domain including full length of human β1-adrenoceptor were amplified; expressed in transfected cells; host or cells: CHO cells
T2 sequence (P08588 whole entry): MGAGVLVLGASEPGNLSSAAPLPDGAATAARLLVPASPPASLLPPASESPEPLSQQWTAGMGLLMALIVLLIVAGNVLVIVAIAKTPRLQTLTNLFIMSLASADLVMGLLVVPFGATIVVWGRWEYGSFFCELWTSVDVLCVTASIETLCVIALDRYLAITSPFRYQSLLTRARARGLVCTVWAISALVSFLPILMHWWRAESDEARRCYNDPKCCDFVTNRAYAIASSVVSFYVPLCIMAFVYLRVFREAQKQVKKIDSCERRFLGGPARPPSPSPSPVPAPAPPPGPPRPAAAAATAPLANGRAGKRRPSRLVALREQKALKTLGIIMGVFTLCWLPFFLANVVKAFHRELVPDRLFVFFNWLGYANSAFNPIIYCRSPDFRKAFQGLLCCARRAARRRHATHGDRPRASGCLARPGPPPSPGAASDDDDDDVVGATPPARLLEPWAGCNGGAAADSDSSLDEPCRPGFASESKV
Description: (§1) 2. Measurement of Agonistic Activities on Human β1- and β2-adrenoceptors
(1) Human β1-adrenoceptor
Both ends of a domain including full length of human β1-adrenoceptor were amplified on the basis of DNA base information that is registered with GenBank/EMBL data base as Accession No. J03019. DNA fragment which was amplified was inserted into a vector for cloning and amplified in Escherichia coli bacteria. The plasmid which was cloned was inserted into a vector pCI-neo (Promega) for protein expression and plasmid DNA was extracted and purified, then it was used for a preparation of the following expression cells.
(1) Preparation of Human β1-adrenoceptor Expressed Cells
The plasmid (320 ng) for expression which was obtained in the previous section was transfected into 5×10^4 CHO cells suspended in DMEM (Gibco-BRL: LIFE TECHNOLOGIES) containing 10% fetal bovine serum (Sanko Junyaku) by means of Lipofectoamine2000 (Invitrogen). These cells were dispensed in 96 well plate by 5×10^4 cells/100 μL per well and were cultured under an atmosphere of 5% CO2 at 37° C. for 24 hours, and were used for the assay.
(§2) 3) Measurement of Agonistic Activities on Human β1- and β2-adrenoceptors
(§3) Test compounds were dissolved in 50% dimethyl sulfoxide to make a 10^−2 M solution. Then, a series of 1:10 dilutions containing a maximal dose of […] were prepared using D-PBS (−). The series were used for a testing sample to measure activity. The culture medium of CHO cells of previous section was removed and washed twice with 200 μL D-PBS (−) per well. After that, 50 μL of 3-isobutyl-1-methylxanthine (SIGMA, 1 mM) was added and leaved at rest for 5 minutes, and 50 μL of testing sample were added in them and they were incubated under an atomosphere of 5% CO2 at 37° C. for 30 minutes. cAMP concentrations accumulated in cells were reacted in cAMP-Screen and were detected by Microplate LuminometerTR717.

[3] = tested on: ddY mice adipocytes; assay: Lipolysis in ddY mice adipocytes (free fatty acid release); assay type: cell-based; details: Mus musculus, Adipocyte, 2 h; read-out: Lipolysis acticity EC50 value
Method: Epididymal fat tissue of ddY mice (body weight 35 g) was removed and isolated to cells by collagenase (typeI, 1 mg/ml) in a culture medium (Krebs-Henseleit solution inclusive of 3% BSA, 1.2 mM CaCl2 and 25 mM HEPES but exclusive of NaHCO3; pH7.4) maintained at 37° C. After rinsing the cells in the culture medium, 50,000 cells/well were seeded in a 96-well culture plate and were incubated at 37° C. in the presence of various concentration of test compounds. Two hours later, the concentration of free fatty acid in the culture medium was measured and it was made as an index for lipolysis. The concentration of free fatty acid was measured by means of NEFA C-test wako (WAKO).
(R)-3′-[[2-[[2-(3-chlorophenyl)-2-hydroxyethyl]amino-ethoxy]-[1,1′-biphenyl]-3-carboxylic acid which was described in example 17 on WO99/65877 was also examined as a comparison example.

[4] = target: T3, β2-adrenoceptor (Rattus norvegicus, UniProt P10608); assay: β2-adrenoceptor stimulation in isolated tissue: inhibition of spontaneous contraction of pregnant rat uterus (Magnus method); design: species or system SD rat; details: read-out: β2 receptor EC50
T3 construct: The uterus of pregnant SD rat (Day 21 of gestation) was isolated and longitudinal muscle strip; from tissue; host or cells: pregnant SD rat uterus, longitudinal muscle strip
T3 sequence (P10608 whole entry): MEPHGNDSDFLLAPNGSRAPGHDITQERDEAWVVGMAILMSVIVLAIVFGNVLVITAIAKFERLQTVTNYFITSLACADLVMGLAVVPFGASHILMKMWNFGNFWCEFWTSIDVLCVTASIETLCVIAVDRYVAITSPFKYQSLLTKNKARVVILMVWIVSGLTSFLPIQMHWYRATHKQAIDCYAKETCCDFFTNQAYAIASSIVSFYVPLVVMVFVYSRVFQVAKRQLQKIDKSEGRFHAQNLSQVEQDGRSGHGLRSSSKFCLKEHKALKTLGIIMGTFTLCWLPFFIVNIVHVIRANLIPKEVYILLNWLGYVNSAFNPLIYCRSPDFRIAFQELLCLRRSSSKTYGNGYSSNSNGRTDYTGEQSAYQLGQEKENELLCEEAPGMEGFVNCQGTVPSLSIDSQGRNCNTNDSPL
Method: 3) Measurement of β2-adrenoceptor Stimulation
The uterus of pregnant SD rat (Day 21 of gestation) was isolated and longitudinal muscle strip, which was avoided placenta attached part, about 15 mm in length and 5 mm in width was taken and the experiment was conducted according to a Magnus method. The preparation was suspended in a Locke-Ringer solution maintained at 37° C. and gassed with a mixed gas of 95% O2 and 5% CO2 and stretched at a tension of 0.5 g. Spontaneous contraction of uterus was outputted through an isometric force transducer and recorded on an oscillograph through a tachometer. The test compound was added cumulatively into a Magnus bath by every 5 minutes. Potencies were evaluated that the sum of uterine contraction for 5 minutes before the addition of test compounds was taken as a 100%, and compared with the sum of uterine contraction for 5 minutes after the addition of each concentration of test compounds. […] (R)-3′-[[2-[[2-(3-chlorophenyl)-2-hydroxyethyl]-aminoethoxy]-[1,1′-biphenyl]-3-carboxylic acid which was described in example 17 on WO99/65877 was also examined as a comparison example.

[5] = target: T4, human β2-adrenoceptor (Homo sapiens, UniProt P07550); assay: Agonistic activities on human β2-adrenoceptor (cAMP in transfected CHO cells); assay type: cell-based; details: intrinsic activity: maximum reaction relative to isoproterenol maximum (100%)
T4 construct: expressed in transfected cells; host or cells: CHO cells
T4 sequence (P07550 whole entry): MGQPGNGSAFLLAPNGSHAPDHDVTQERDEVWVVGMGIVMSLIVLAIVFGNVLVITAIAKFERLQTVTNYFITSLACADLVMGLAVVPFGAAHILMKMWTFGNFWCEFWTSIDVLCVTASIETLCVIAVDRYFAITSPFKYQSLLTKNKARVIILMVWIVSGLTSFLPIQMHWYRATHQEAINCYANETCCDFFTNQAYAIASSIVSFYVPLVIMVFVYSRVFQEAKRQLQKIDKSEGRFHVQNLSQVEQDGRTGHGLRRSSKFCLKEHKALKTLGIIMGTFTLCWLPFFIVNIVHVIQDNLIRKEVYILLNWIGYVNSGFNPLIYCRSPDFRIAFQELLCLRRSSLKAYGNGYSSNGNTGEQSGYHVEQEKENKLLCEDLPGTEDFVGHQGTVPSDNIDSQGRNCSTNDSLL
Description: as §1
(2) Human β2-adrenoceptor
The primer which added a restriction enzyme recognition region to 5′ end was designed on the basis of the base information that is registered with GenBank/EMBL data base as Accession No. M15169, and the clone was obtained by performance of PCR using human bladder origin cDNA as a template. The clone was inserted in top GEM-T vector and was amplified in Escherichia coli bacteria as a plasmid, and it was purified and the sequence of full length and around of insertion sequence determined by means of 310 Genetic Analyzer (ABI).
(2) Preparation of Human β2-adrenoceptor Expressed Cells
The plasmid (80 ng) for expression obtained in the previous section was transfected into […] suspended in DMEM containing 10% fetal bovine serum by means of Lipofectoamine2000. These cells were dispensed in 96 well plate by 5×10^4 cells/100 μL per well and were cultured under an atmosphere of 5% CO2 at 37° C. for 24 hours, and were used for the assay.
as §2, §3

[6] = target: T5, human β3-adrenoceptor (Homo sapiens, UniProt P13945); assay: Agonistic activities on human β3-adrenoceptor (cAMP accumulation in SK-N-MC cells); assay type: cell-based; details: for β3 receptor I.A.: intrinsic activity: maximum reaction relative to isoproterenol maximum (100%); for EC50: read-out: β3 receptor EC50
T5 construct: SK-N-MC cells (American Type Culture Collection, 1×10^5 cell/mL) were put in 96 well plates; host or cells: SK-N-MC cells
T5 sequence (P13945 whole entry): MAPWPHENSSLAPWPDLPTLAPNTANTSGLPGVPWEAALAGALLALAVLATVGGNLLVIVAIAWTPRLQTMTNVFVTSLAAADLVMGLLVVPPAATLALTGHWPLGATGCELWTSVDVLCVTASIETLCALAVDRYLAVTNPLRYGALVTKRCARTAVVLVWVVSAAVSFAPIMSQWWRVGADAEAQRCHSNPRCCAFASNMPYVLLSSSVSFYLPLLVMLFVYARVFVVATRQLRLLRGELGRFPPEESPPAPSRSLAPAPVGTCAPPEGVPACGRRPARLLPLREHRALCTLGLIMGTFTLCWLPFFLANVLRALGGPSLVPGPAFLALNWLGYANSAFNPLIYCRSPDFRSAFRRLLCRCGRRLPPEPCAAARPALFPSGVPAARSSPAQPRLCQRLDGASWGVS
Method: 1. Measurement of Agonistic Activities on Human β3-adrenoceptor
Test compounds were dissolved in 50% dimethyl sulfoxide to make a 10^−2 M solution. Then, a series of 1:10 dilutions containing a maximal dose of 1×10^−4 M were prepared using D-PBS (−) (Gibco-BRL: LIFE TECHNOLOGIES). The series were used for a testing sample to measure activity. SK-N-MC cells (American Type Culture Collection, 1×10^5 cell/mL) were put in 96 well plates by 100 μL and were cultured for about 24 hours. […] After that, 20 μL of 3-isobutyl-1-methylxanthine (SIGMA, 1×10^−2 mol/L D-PBS (−) solution) and 20 μL of testing sample were added in them and they were incubated under an atmosphere of 5% CO2 at 37° C. for 30 minutes. cAMP concentrations accumulated in cells were reacted in cAMP-Screen (Applied Biosystems) and were detected by Microplate LuminometerTR717 (Applied Biosystems).

[7] = Transport study using human intestinal epithelium tissue (Caco-2); assay type: in vitro ADME; details: inside (pH 6.0) to outside (pH 7.4), 37° C., read-out: permeability coefficient Caco-2 Papp
Method: 1) Preparation of Culture Medium.
Dulbecco's modified Eagle's medium (Invitrogen Life Technologies) containing 1% fetal bovine serum (Sanko Jyunyaku), 1% MEM-nonessential amino acids, […] L-glutamine (Invitrogen Life Technologies), 1% penicillin—streptomycin 10000 units/mL-10000 μg/mL (Invitrogen Life Technologies) was prepared and used as a culture medium.
Caco-2 cells (American Type Culture Collection) were subcultured in a culture flask containing the culture medium.
After removing the culture medium before the cell reaches confluent, Caco-2 cells were washed with Hank's balanced salt solution Ca, Mg Free (Invitrogen Life Technologies).
The culture medium in the inside and outside compartments of the Traswell chamber was removed and replaced by a buffer solution containing 10 mM MES (pH 6.0) or 10 mM HEPES (pH7.4). The medium volume in the inside and outside compartments of the chamber was made at 0.1 mL (pH 6.0) and 0.5 mL (pH 7.4), respectively. The medium of the inside compartment was replaced by a buffer solution (pH 6.0) containing test compounds. For evaluating the transport of the test compounds from the inside compartment to the outside compartment, 100 μL of the outside buffer was sampled after incubating at 37° C. for 1 hr.
The apparent permeability coefficient was calculated as the following equation. The amounts of the test compounds in the outside buffer sampled were divided by incubation time. In addition, the amounts of penetration per incubation time (second) were divided by the concentration of the added test compound and the membrane surface.
[formula] • Papp is apparent permeability coefficient. (×10^−6 cm/sec) • dQ/dt is amount of penetration per incubation time. • Co is the initial concentration. (100 μM) • A is the membrane surface area. (0.33 cm^2) • The concentrations of test compounds were determined using LC/MS/MS.

Structure (SMILES) | EC50 ([2]; CHO cells expressing human β1-adrenoceptor, cAMP, 50% of isoproterenol maximum, read-out: β1 receptor EC50) | β1 receptor I.A. [2] | EC50 [3] | EC50 [4] | β2 receptor I.A. [5] | β3 receptor I.A. [6] | EC50 [6] | Papp at 1 h, 100 μM [7] | EC50 ([2]; read-out: β1 receptor EC50) | Emax ([2]; CHO, read-out: β1 receptor EC50) | EC50 [1]
Cc1cc(C(=O)O)ccc1-c1cc(C)c(OCCN[C@@H](C)[C@H](O)c2ccc(O)cc2)c(C)c1 [Compound 3, 4′-{2-[(1S,2R)-2-Hydroxy-2-(4-hydroxyphenyl)-1-methylethyl-amino]ethoxy}-2,3′,5′-trimethylbiphenyl-4-carboxylic acid] | – | – | – | – | – | – | – | 19.9 ×10⁻⁶ cm/s | – | – | –
CC(C)c1cc(C(=O)O)ccc1-c1ccc(OCCN[C@@H](C)[C@H](O)c2ccc(O)cc2)cc1 [Compound 156] | – | 87% | 0.0195 µM | 5.87 µM | 27% | 239% | 0.025 µM | 3.4 ×10⁻⁶ cm/s | 18.9 µM | – | > 10 µM
CCCc1cc(C(=O)O)ccc1-c1cc(C)c(OCCN[C@@H](C)[C@H](O)c2ccc(O)cc2)c(C)c1 [Compound 26] | – | 74% | 0.0112 µM | – | 49% | 125% | 0.057 µM | – | 2.28 µM | – | –
CC(C)NCC(O)c1ccc(O)c(O)c1 (centres unmarked) [Isoproterenol, reference compound] | – | – | – | – | – | 100% | – | – | – | – | –
Cc1cc(-c2ccc(C(=O)O)c(C(C)C)c2)cc(C)c1OCCN[C@@H](C)[C@H](O)c1ccc(O)cc1 [Compound 4, 4′-{2-[(1S,2R)-2-Hydroxy-2-(4-hydroxyphenyl)-1-methylethyl-amino]ethoxy}-3-isopropyl-3′,5′-dimethylbiphenyl-4-carboxylic acid] | – | 45% | – | – | 27% | 94% | 0.24 µM | 15.7 ×10⁻⁶ cm/s | – | < 50% | –

Now from value to compound, other results behind:

EC50 ([2]; CHO cells expressing human β1-adrenoceptor, cAMP, 50% of isoproterenol maximum, read-out: β1 receptor EC50) | β1 receptor I.A. [2] | EC50 [3] | EC50 [4] | β2 receptor I.A. [5] | β3 receptor I.A. [6] | EC50 [6] | Papp at 1 h, 100 μM [7] | EC50 ([2]; read-out: β1 receptor EC50) | Emax ([2]; CHO, read-out: β1 receptor EC50) | Structure (SMILES) | EC50 [1]
0.74 µM | 60% | > 1 µM | > 10 µM | 15% | 41% | > 10 µM | – | – | – | O=C(O)c1cccc(-c2cccc(OCCNC[C@H](O)c3cccc(Cl)c3)c2)c1 [Comparison, reference compound] | 1.88 µM
– | 62% | – | – | 32% | 91% | 0.2 µM | 4 ×10⁻⁶ cm/s | 0.79 µM | – | CCCc1cc(C(=O)O)ccc1-c1ccc(OCCN[C@@H](C)[C@H](O)c2ccc(O)cc2)cc1 [Compound 160] | –
– | 57% | – | 2.68 µM | 28% | 97% | 0.48 µM | – | 4.32 µM | – | CCc1cc(C(=O)O)ccc1-c1ccc(OCCN[C@@H](C)[C@H](O)c2ccc(O)cc2)cc1 [Compound 153, 2-Ethyl-4′-{(1S,2R)-2-[2-hydroxy-2-(4-hydroxyphenyl)-1-methylethylamino]ethoxy}biphenyl-4-carboxylic acid] | > 10 µM
